Reference: ChEMBL document CHEMBL3352489, “6-Hydroxyquinolinium salts differing in the length of alkyl side-chain: synthesis and antimicrobial activity” (Bioorg Med Chem Lett, 2014)

What was measured:
[1] = test system: Trichophyton mentagrophytes; experiment: microbe, parasite or virus in culture; format: functional; conditions: Trichophyton mentagrophytes, 445, 72 h
Description: Antifungal activity against Trichophyton mentagrophytes 445 after 72 hrs by modified standard CSLI M27-A2 method

Aspergillus fumigatus [2] = experiment: microbe, parasite or virus in culture; format: functional; conditions: Aspergillus fumigatus, 231, 48 h
Description: Antifungal activity against Aspergillus fumigatus 231 after 48 hrs by modified standard CSLI M27-A2 method

Klebsiella pneumoniae [3] = experiment: microbe, parasite or virus in culture; format: functional; conditions: D 11750/08, 24 h
Description: Antibacterial activity against Klebsiella pneumoniae D 11750/08 after 24 hrs by microdilution broth method

Candida tropicalis [4] = experiment: microbe, parasite or virus in culture; format: functional; conditions: Candida tropicalis, 156, 24 h
Description: Antifungal activity against Candida tropicalis 156 after 24 hrs by modified standard CSLI M27-A2 method

[5] = test system: Trichophyton mentagrophytes; experiment: microbe, parasite or virus in culture; format: functional; conditions: Trichophyton mentagrophytes, 445, 120 h
Description: Antifungal activity against Trichophyton mentagrophytes 445 after 120 hrs by modified standard CSLI M27-A2 method

Pichia kudriavzevii [6] = experiment: Fungicidal activity against Candida krusei E28 after 48 hrs by modified standard CSLI M27-A2 method; format: functional; conditions: E28, 48 h
[7] = test system: Staphylococcus epidermidis; experiment: Bactericidal activity against Staphylococcus epidermidis H 6966/08 after 48 hrs by microdilution broth method; format: functional; conditions: H 6966/08, 48 h, read-out: MBC>99.9
Trichosporon asahii [8] = experiment: Fungicidal activity against Trichosporon asahii 1188 after 48 hrs by modified standard CSLI M27-A2 method; format: functional; conditions: Trichosporon asahii, 1188, 48 h
Candida albicans [9] = experiment: Fungicidal activity against Candida albicans ATCC 44859 after 48 hrs by modified standard CSLI M27-A2 method; format: functional; conditions: ATCC 44859, 48 h
Staphylococcus aureus [10] = experiment: microbe, parasite or virus in culture; format: functional; conditions: H 5996/08, 48 h
Description: Antibacterial activity against Staphylococcus aureus H 5996/08 after 48 hrs by microdilution broth method

Staphylococcus aureus [11] = experiment: microbe, parasite or virus in culture; format: functional; conditions: CCM 4516/08, 48 h
Description: Antibacterial activity against Staphylococcus aureus CCM 4516/08 after 48 hrs by microdilution broth method

Pseudomonas aeruginosa [12] = experiment: microbe, parasite or virus in culture; format: functional; conditions: CCM 1961, 72 h
Description: Antibacterial activity against Pseudomonas aeruginosa CCM 1961 after 72 hrs by microdilution broth method

Pichia kudriavzevii [13] = experiment: Antifungal activity against Candida krusei E28 after 24 hrs by modified standard CSLI M27-A2 method; format: functional; conditions: E28, 24 h
[14] = Cytotoxicity against CHOK1 cells after 24 hrs by MTT assay; format: ADME, cell-based; conditions: Cricetulus griseus, CHO-K1, 24 h
Lichtheimia corymbifera [15] = experiment: microbe, parasite or virus in culture; format: functional; conditions: Lichtheimia corymbifera, 272, 24 h
Description: Antifungal activity against Absidia corymbifera 272 after 24 hrs by modified standard CSLI M27-A2 method

Escherichia coli [16] = experiment: microbe, parasite or virus in culture; format: functional; conditions: CCM 4517, 24 h
Description: Antibacterial activity against Escherichia coli CCM 4517 after 24 hrs by microdilution broth method

Aspergillus fumigatus [17] = experiment: microbe, parasite or virus in culture; format: functional; conditions: Aspergillus fumigatus, 231, 24 h
Description: Antifungal activity against Aspergillus fumigatus 231 after 24 hrs by modified standard CSLI M27-A2 method

Nakaseomyces glabratus [18] = experiment: Fungicidal activity against Candida glabrata 20/I after 48 hrs by modified standard CSLI M27-A2 method; format: functional
Klebsiella pneumoniae [19] = experiment: Bactericidal activity against Klebsiella pneumoniae J 14368/08 after 48 hrs by microdilution broth method; format: functional; conditions: J 14368/08, 48 h, read-out: MBC>99.9
Enterococcus sp. [20] = experiment: microbe, parasite or virus in culture; format: functional; conditions: J 14365/08, 48 h
Description: Antibacterial activity against Enterococcus sp. J 14365/08 after 48 hrs by microdilution broth method

Enterococcus sp. [21] = experiment: microbe, parasite or virus in culture; format: functional; conditions: J 14365/08, 24 h
Description: Antibacterial activity against Enterococcus sp. J 14365/08 after 24 hrs by microdilution broth method

Candida tropicalis [22] = experiment: microbe, parasite or virus in culture; format: functional; conditions: Candida tropicalis, 156, 48 h
Description: Antifungal activity against Candida tropicalis 156 after 48 hrs by modified standard CSLI M27-A2 method

Klebsiella pneumoniae [23] = experiment: microbe, parasite or virus in culture; format: functional; conditions: J 14368/08, 24 h
Description: Antibacterial activity against Klebsiella pneumoniae J 14368/08 after 24 hrs by microdilution broth method

Escherichia coli [24] = experiment: microbe, parasite or virus in culture; format: functional; conditions: CCM 4517, 48 h
Description: Antibacterial activity against Escherichia coli CCM 4517 after 48 hrs by microdilution broth method

Aspergillus fumigatus [25] = experiment: Fungicidal activity against Aspergillus fumigatus 231 after 48 hrs by modified standard CSLI M27-A2 method; format: functional; conditions: Aspergillus fumigatus, 231, 48 h
Klebsiella pneumoniae [26] = experiment: microbe, parasite or virus in culture; format: functional; conditions: J 14368/08, 48 h
Description: Antibacterial activity against Klebsiella pneumoniae J 14368/08 after 48 hrs by microdilution broth method

Candida albicans [27] = experiment: microbe, parasite or virus in culture; format: functional; conditions: ATCC 44859, 48 h
Description: Antifungal activity against Candida albicans ATCC 44859 after 48 hrs by modified standard CSLI M27-A2 method

Trichosporon asahii [28] = experiment: microbe, parasite or virus in culture; format: functional; conditions: Trichosporon asahii, 1188, 48 h
Description: Antifungal activity against Trichosporon asahii 1188 after 48 hrs by modified standard CSLI M27-A2 method

Staphylococcus aureus [29] = experiment: Bactericidal activity against Staphylococcus aureus H 5996/08 after 48 hrs by microdilution broth method; format: functional; conditions: H 5996/08, 48 h, read-out: MBC>99.9
Staphylococcus aureus [30] = experiment: Bactericidal activity against Staphylococcus aureus CCM 4516/08 after 48 hrs by microdilution broth method; format: functional; conditions: CCM 4516/08, 48 h, read-out: MBC>99.9
Candida albicans [31] = experiment: microbe, parasite or virus in culture; format: functional; conditions: ATCC 44859, 24 h
Description: Antifungal activity against Candida albicans ATCC 44859 after 24 hrs by modified standard CSLI M27-A2 method

Escherichia coli [32] = experiment: Bactericidal activity against Escherichia coli CCM 4517 after 48 hrs by microdilution broth method; format: functional; conditions: CCM 4517, 48 h, read-out: MBC>99.9
Pseudomonas aeruginosa [33] = experiment: Bactericidal activity against Pseudomonas aeruginosa CCM 1961 after 120 hrs by microdilution broth method; format: functional; conditions: CCM 1961, 120 h, read-out: MBC>99.9
[34] = test system: Trichophyton mentagrophytes; experiment: Fungicidal activity against Trichophyton mentagrophytes 445 after 120 hrs by modified standard CSLI M27-A2 method; format: functional; conditions: Trichophyton mentagrophytes, 445, 120 h
Nakaseomyces glabratus [35] = experiment: Antifungal activity against Candida glabrata 20/I after 48 hrs by modified standard CSLI M27-A2 method; format: functional
[36] = test system: Staphylococcus epidermidis; experiment: microbe, parasite or virus in culture; format: functional; conditions: H 6966/08, 48 h
Description: Antibacterial activity against Staphylococcus epidermidis H 6966/08 after 48 hrs by microdilution broth method

Staphylococcus aureus [37] = experiment: microbe, parasite or virus in culture; format: functional; conditions: H 5996/08, 24 h
Description: Antibacterial activity against Staphylococcus aureus H 5996/08 after 24 hrs by microdilution broth method

Pseudomonas aeruginosa [38] = experiment: microbe, parasite or virus in culture; format: functional; conditions: CCM 1961, 120 h
Description: Antibacterial activity against Pseudomonas aeruginosa CCM 1961 after 120 hrs by microdilution broth method

Pichia kudriavzevii [39] = experiment: Antifungal activity against Candida krusei E28 after 48 hrs by modified standard CSLI M27-A2 method; format: functional; conditions: E28, 48 h
Staphylococcus aureus [40] = experiment: microbe, parasite or virus in culture; format: functional; conditions: CCM 4516/08, 24 h
Description: Antibacterial activity against Staphylococcus aureus CCM 4516/08 after 24 hrs by microdilution broth method

Candida tropicalis [41] = experiment: Fungicidal activity against Candida tropicalis 156 after 48 hrs by modified standard CSLI M27-A2 method; format: functional; conditions: Candida tropicalis, 156, 48 h
[42] = test system: Staphylococcus epidermidis; experiment: microbe, parasite or virus in culture; format: functional; conditions: H 6966/08, 24 h
Description: Antibacterial activity against Staphylococcus epidermidis H 6966/08 after 24 hrs by microdilution broth method

Nakaseomyces glabratus [43] = experiment: Antifungal activity against Candida glabrata 20/I after 24 hrs by modified standard CSLI M27-A2 method; format: functional
Trichosporon asahii [44] = experiment: microbe, parasite or virus in culture; format: functional; conditions: Trichosporon asahii, 1188, 24 h
Description: Antifungal activity against Trichosporon asahii 1188 after 24 hrs by modified standard CSLI M27-A2 method

Enterococcus sp. [45] = experiment: Bactericidal activity against Enterococcus sp. J 14365/08 after 48 hrs by microdilution broth method; format: functional; conditions: J 14365/08, 48 h, read-out: MBC>99.9
Klebsiella pneumoniae [46] = experiment: microbe, parasite or virus in culture; format: functional; conditions: D 11750/08, 48 h
Description: Antibacterial activity against Klebsiella pneumoniae D 11750/08 after 48 hrs by microdilution broth method

Lichtheimia corymbifera [47] = experiment: Fungicidal activity against Absidia corymbifera 272 after 48 hrs by modified standard CSLI M27-A2 method; format: functional; conditions: Lichtheimia corymbifera, 272, 48 h
Klebsiella pneumoniae [48] = experiment: Bactericidal activity against Klebsiella pneumoniae D 11750/08 after 24 hrs by microdilution broth method; format: functional; conditions: D 11750/08, 24 h, read-out: MBC>99.9
Lichtheimia corymbifera [49] = experiment: microbe, parasite or virus in culture; format: functional; conditions: Lichtheimia corymbifera, 272, 48 h
Description: Antifungal activity against Absidia corymbifera 272 after 48 hrs by modified standard CSLI M27-A2 method

## CCCCCCCCCCCCCC[N+](C)(C)Cc1ccccc1
[1]
  MIC: 15.6 µM
Aspergillus fumigatus [2]
  MIC: 15.6 µM
Klebsiella pneumoniae [3]
  MIC95: 7.81 µM
Candida tropicalis [4]
  MIC: 3.91 µM
[5]
  MIC: 15.6 µM
Pichia kudriavzevii [6]
  MFC: 125 µM
[7]
  MBC: 0.98 µM
Trichosporon asahii [8]
  MFC: 125 µM
Candida albicans [9]
  MFC: 125 µM
Staphylococcus aureus [10]
  MIC95: 1.95 µM
Staphylococcus aureus [11]
  MIC95: 0.98 µM
Pseudomonas aeruginosa [12]
  MIC95: 15.6 µM
Pichia kudriavzevii [13]
  MIC: 3.91 µM
[14]
  IC50: 24 µM
Lichtheimia corymbifera [15]
  MIC: 31.2 µM
Escherichia coli [16]
  MIC95: 7.81 µM
Aspergillus fumigatus [17]
  MIC: 7.81 µM
Nakaseomyces glabratus [18]
  MFC: 125 µM
Klebsiella pneumoniae [19]
  MBC: 7.81 µM
Enterococcus sp. [20]
  MIC95: 1.95 µM
Enterococcus sp. [21]
  MIC95: 1.95 µM
Candida tropicalis [22]
  MIC: 3.91 µM
Klebsiella pneumoniae [23]
  MIC95: 7.81 µM
Escherichia coli [24]
  MIC95: 7.81 µM
Aspergillus fumigatus [25]
  MFC: 125 µM
Klebsiella pneumoniae [26]
  MIC95: 7.81 µM
Candida albicans [27]
  MIC: 7.81 µM
Trichosporon asahii [28]
  MIC: 31.2 µM
Staphylococcus aureus [29]
  MBC: 3.91 µM
Staphylococcus aureus [30]
  MBC: 3.91 µM
Candida albicans [31]
  MIC: 7.81 µM
Escherichia coli [32]
  MBC: 7.81 µM
Pseudomonas aeruginosa [33]
  MBC: 62.5 µM
[34]
  MFC: 15.6 µM
Nakaseomyces glabratus [35]
  MIC: 7.81 µM
[36]
  MIC95: 0.98 µM
Staphylococcus aureus [37]
  MIC95: 1.95 µM
Pseudomonas aeruginosa [38]
  MIC95: 31.2 µM
Pichia kudriavzevii [39]
  MIC: 3.91 µM
Staphylococcus aureus [40]
  MIC95: 0.98 µM
Candida tropicalis [41]
  MFC: 125 µM
[42]
  MIC95: 0.98 µM
Nakaseomyces glabratus [43]
  MIC: 7.81 µM
Trichosporon asahii [44]
  MIC: 31.2 µM
Enterococcus sp. [45]
  MBC: 7.81 µM
Klebsiella pneumoniae [46]
  MIC95: 7.81 µM
Lichtheimia corymbifera [47]
  MFC: 125 µM
Klebsiella pneumoniae [48]
  MBC: 7.81 µM
Lichtheimia corymbifera [49]
  MIC: 31.2 µM
